Starred links: 1 amine or outer side, 2 acyl side, 3 side chain; linkers in the order of their positions; H or OH if unused. Positions of bridges follow the written chain, without caps; N, C: chain ends. Non-standard residues stand in square brackets, D forms with d. Residues, ends and D or L forms follow the SMILES beside them. Groups on a side chain read outwards from the residue. *: point of attachment. X1 = CCN1C(=CC=CC2=[N+](CCCCCC(=O)*)c3ccc(S(=O)(=O)O)cc3C2(C)C)C(C)(C)c2cc(S(=O)(=O)[O-])ccc21; d(εLys) = N[C@H](CCCCN[*:1])C(=O)[*:2]; X2 = O=C(CC1(S[*:2])CCCCC1)[*:1]; PEG5 = NCCOCCOCCOCCOCCOCCC(=O)O; Orn = NCCC[C@H](N)C(=O)O; Mpa = O=C(O)CCS
Tests used:
hOTR = molecular target: T1, hOTR (Homo sapiens, UniProt P30559); assay: Radioligand displacement and saturation binding, membranes of HEK293 cells stably expressing hOTR, [3H]-OT; conditions: for Ki: [3H]-OT, mean ± SD, duplicates, at least three independent experiments, read-out: Ki hOTR
T1 construct: expressed in transfected cells
T1 sequence (P30559 1-389): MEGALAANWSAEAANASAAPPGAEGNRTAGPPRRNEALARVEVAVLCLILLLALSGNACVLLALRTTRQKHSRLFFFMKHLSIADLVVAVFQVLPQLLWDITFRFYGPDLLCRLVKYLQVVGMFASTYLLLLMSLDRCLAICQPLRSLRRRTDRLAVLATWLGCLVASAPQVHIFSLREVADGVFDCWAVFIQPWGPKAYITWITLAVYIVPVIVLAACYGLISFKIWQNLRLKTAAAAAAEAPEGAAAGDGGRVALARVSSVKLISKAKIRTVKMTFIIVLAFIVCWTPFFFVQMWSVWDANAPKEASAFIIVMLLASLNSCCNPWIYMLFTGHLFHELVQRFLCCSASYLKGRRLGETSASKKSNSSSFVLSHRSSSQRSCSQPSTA
Experimental: (§1) Membrane preparation for radioligand assays. HEK293 cells were used for stable expression of GFP-tagged
(§2) human OTR, V1aR, V1bR, and V2R isoforms and transient expression of murine OTR, V1aR, V1bR, and V2R
(§3) isoforms. Cell culture work was performed under sterile conditions with DMEM high glucose containing 10%
(§4) FBS, and 50 U/mL P/S. Cells were cultured in 10 cm diameter cell culture dishes at 37°C in a humidified
(§5) atmosphere with 5% CO2, and cells were passaged at 70-90% confluency.
(§6) medium of stable cell lines at 0.5 mg/mL to sustain selection pressure, and cells were harvested at 90% confluency
(§7) for membrane preparation. For transient expression of murine receptors, 60% confluent wild-type HEK293 cells
(§8) were transfected using the jetPRIME transfection reagent according to the manufacturer’s protocol and harvested
(§9) 48 h post-transfection. For membrane preparation, cells were washed with ice-cold PBS pH 7.4, scraped into fresh
(§10) PBS on ice, and centrifuged at 4°C and 178 g for 10 min. The pellet was resuspended in a TRIS buffer solution
(§11) ice-cold water bath sonicator. The obtained solution was centrifuged for 20 min at 54,192 g and 4°C. The obtained
(§12) pellet was resuspended in TRIS buffer without protease inhibitors, homogenized with an ultrasonicator, aliquoted,
(§13) and stored at -80°C until further use. A BCA assay was used to determine the protein concentration of the
(§14) Radioligand displacement and saturation experiments. Assay solutions consisting of competing ligand,
(§15) radioligand, and membrane preparation were incubated for 1 h at 37°C. Standard binding buffer solution (50 mM
(§16) TRIS, 5 mM MgCl2, 0.1% BSA, pH 7.4) was used to prepare all dilutions; the final assay volume was 200 µL.
(§17) concentrations were 8 μg/vial for hOTR, 5 μg/vial for hV1aR, and 3 μg/vial for hV1bR and hV2R, respectively , and
(§18) 4 μg/vial for mOTR, 1.5 μg/vial for m V1aR, 3 μg/vial for mV 1bR, and 10 μg/vial for mV 2R. To assess non-specific
Specific binding was determined by
(§19) subtraction of the non-specific binding from the total binding. In radioligand displacement experiments, semi -
(§20) logarithmically spaced concentrations of respective test ligands were applied to determine K i values based on
(§21) assessed Kd values of radiotracers and by fitting the data to a three -parameter logistic Hill equation and applying
(§22) the Cheng and Prusoff approximation. 10 In case of human receptors from stable cell lines, Kd and Bmax values were
(§23) In case of murine receptors from transient
(§24) was performed using GraphPad Prism (version 9.5.1) . After incubation, membranes were filtered and washed on
(§25) a Skatron Cell Harvester using polyethyleneimine -coated glass fiber filters (type B, soaked in 0.1% aqueous
1 mM MgCl2, pH 7.4, 4°C). The soaked filter pieces were transferred into counter vials, and 2 mL of scintillation
cocktail (LSC Universalcocktail) was added to each vial. After 1 h incubation at 25°C on a shaker, radioligand
concentration was determined using a Tri -Carb liquid scintillation analyzer.
response curves were obtained from radioligand displacement experiments of membrane preparations of HEK293
Values were normalized to the percentage
of maximum binding (i.e., no competing ligand present). Specific binding was obtained from the subtraction of
non-specific binding from total binding. K i values were derived from one-site-fitted competition binding curves.

hV1aR = molecular target: T2, hV1aR (Homo sapiens, UniProt P37288); assay: Radioligand displacement and saturation binding, membranes of HEK293 cells stably expressing hV1aR, [3H]-VP; conditions: read-out: Ki hV1aR
T2 construct: expressed in transfected cells
T2 sequence (P37288 whole entry): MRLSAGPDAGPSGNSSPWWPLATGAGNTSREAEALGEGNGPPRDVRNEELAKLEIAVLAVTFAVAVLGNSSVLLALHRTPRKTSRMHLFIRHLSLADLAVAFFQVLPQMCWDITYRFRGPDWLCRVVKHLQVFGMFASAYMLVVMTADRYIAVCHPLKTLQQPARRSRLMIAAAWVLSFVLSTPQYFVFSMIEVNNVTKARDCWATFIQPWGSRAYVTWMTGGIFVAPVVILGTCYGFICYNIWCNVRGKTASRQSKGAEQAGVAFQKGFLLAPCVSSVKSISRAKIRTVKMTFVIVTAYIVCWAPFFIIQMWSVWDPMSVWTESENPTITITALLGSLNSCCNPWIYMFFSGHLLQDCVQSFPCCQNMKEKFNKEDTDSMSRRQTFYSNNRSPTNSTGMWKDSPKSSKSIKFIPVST
Experimental: as §1, §2, §3, §4, §5, §6, §7, §8, §9, §10
(§26) ice-cold water bath sonicator. The obtained solution was centrifuged for 20 min at 54,192 g and 4°C. The obtained […]
Specific binding was determined by […]
(§27) assessed Kd values of radiotracers and by fitting the data to a three -parameter logistic Hill equation and applying […]
(§28) concentration was determined using a Tri -Carb liquid scintillation analyzer. […]

hV1bR = molecular target: T3, hV1bR (Homo sapiens, UniProt P47901); assay: Radioligand displacement and saturation binding, membranes of HEK293 cells stably expressing hV1bR, [3H]-VP; conditions: read-out: Ki hV1bR
T3 construct: expressed in transfected cells; membrane preparation
T3 sequence (P47901 1-424): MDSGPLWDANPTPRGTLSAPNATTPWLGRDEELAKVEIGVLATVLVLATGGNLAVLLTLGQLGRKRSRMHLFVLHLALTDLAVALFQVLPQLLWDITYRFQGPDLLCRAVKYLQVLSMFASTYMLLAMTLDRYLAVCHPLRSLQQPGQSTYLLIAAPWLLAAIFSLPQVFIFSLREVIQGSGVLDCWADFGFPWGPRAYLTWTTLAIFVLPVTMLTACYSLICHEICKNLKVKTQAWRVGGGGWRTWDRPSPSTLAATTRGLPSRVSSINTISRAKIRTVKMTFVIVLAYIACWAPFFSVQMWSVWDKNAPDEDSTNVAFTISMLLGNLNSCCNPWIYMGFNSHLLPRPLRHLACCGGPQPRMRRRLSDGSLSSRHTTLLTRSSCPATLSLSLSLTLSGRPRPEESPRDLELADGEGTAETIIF
Experimental: as §1, §2, §3, §4, §5, §6, §7, §8, §9, §10, §26
Specific binding was determined by […]
as §27, §28

hV2R = molecular target: T4, hV2R (Homo sapiens, UniProt P30518); assay: Radioligand displacement and saturation binding, membranes of HEK293 cells stably expressing hV2R, [3H]-VP; conditions: read-out: Ki hV2R
T4 construct: expressed in transfected cells; membrane preparation
T4 sequence (P30518 whole entry): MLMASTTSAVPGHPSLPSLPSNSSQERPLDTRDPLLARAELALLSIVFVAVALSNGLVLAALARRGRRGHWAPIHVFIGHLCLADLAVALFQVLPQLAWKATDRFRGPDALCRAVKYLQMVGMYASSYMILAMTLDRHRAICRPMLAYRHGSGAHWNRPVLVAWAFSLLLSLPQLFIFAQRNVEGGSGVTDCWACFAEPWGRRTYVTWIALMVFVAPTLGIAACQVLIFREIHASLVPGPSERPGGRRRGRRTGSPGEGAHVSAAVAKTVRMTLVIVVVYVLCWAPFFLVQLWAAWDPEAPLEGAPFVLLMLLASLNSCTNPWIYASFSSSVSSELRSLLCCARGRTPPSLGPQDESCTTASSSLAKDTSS
Experimental: as §1, §2, §3, §4, §5, §6, §7, §8, §9, §10, §26
Specific binding was determined by […]
as §27, §28

mOTR = molecular target: T5, mOTR (Mus musculus, UniProt P97926); assay: Radioligand displacement, membranes of HEK293 cells transiently expressing mOTR; format: binding, murine
T5 construct: expressed in transfected cells; host or cells: wild-type HEK293, transient transfection (jetPRIME); membrane preparation
T5 sequence (P97926 1-388): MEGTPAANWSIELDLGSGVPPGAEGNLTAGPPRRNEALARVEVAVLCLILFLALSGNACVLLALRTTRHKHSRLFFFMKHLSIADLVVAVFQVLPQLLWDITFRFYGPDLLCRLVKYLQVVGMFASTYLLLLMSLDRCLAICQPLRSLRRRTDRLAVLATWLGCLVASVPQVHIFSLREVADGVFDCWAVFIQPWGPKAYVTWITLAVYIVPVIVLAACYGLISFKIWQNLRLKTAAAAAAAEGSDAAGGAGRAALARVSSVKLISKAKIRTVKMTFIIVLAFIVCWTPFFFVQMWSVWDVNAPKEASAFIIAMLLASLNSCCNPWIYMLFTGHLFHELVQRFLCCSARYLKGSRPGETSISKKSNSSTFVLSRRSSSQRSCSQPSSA
Experimental: as §1, §2, §3, §4, §5, §6, §7, §8, §9, §10, §11, §12, §13, §14, §15, §16, §17, §18
Specific binding was determined by
as §19, §20, §21, §22, §23, §24, §25
1 mM MgCl2, pH 7.4, 4°C). […]
as §28

mV1aR = molecular target: T6, mV1aR (Mus musculus, UniProt Q62463); assay: Radioligand displacement, membranes of HEK293 cells transiently expressing mV1aR; format: binding; conditions: murine receptor, transient expression; mean ± SD
T6 construct: expressed in transfected cells; host or cells: wild-type HEK293, transient transfection (jetPRIME); membrane preparation
T6 sequence (Q62463 whole entry): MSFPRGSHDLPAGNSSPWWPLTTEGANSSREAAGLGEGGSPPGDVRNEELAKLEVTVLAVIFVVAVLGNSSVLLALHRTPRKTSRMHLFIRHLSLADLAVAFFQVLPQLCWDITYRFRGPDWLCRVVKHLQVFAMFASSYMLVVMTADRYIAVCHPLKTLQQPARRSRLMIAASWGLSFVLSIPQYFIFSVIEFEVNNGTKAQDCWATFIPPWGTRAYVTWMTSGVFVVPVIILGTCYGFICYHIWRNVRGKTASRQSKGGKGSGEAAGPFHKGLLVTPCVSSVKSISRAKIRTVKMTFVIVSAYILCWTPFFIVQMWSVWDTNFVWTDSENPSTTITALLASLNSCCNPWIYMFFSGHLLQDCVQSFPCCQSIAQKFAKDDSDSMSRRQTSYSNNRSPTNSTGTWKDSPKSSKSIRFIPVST
Experimental: as §1, §2, §3, §4, §5, §6, §7, §8, §9, §10
(§29) The obtained solution was centrifuged for 20 min at 54,192 g and 4°C. The obtained […]
as §27, §28

mV1bR = molecular target: T7, mV1bR (Mus musculus, UniProt Q9WU02); assay: Radioligand displacement, membranes of HEK293 cells transiently expressing mV1bR; format: binding; conditions: murine receptor, transient expression; mean ± SD
T7 construct: expressed in transfected cells; host or cells: wild-type HEK293, transient transfection (jetPRIME); membrane preparation
T7 sequence (Q9WU02 1-421): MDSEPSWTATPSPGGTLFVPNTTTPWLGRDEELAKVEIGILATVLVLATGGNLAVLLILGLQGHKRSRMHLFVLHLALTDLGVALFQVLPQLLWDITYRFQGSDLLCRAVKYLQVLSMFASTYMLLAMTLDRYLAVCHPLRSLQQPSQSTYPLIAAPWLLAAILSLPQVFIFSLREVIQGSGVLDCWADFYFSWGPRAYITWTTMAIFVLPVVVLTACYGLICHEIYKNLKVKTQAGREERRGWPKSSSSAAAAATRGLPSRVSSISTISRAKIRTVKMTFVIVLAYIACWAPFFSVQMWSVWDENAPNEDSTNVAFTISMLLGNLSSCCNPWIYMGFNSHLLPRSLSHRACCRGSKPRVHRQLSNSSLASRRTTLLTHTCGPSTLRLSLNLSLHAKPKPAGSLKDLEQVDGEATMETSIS
Experimental: as §1, §2, §3, §4, §5, §6, §7, §8, §9, §10, §29, §27, §28

mV2R = molecular target: T8, mV2R (Mus musculus, UniProt O88721); assay: Radioligand displacement, membranes of HEK293 cells transiently expressing mV2R; format: binding; conditions: murine receptor, transient expression; mean ± SD
T8 construct: expressed in transfected cells; host or cells: wild-type HEK293, transient transfection (jetPRIME); membrane preparation
T8 sequence (O88721 whole entry): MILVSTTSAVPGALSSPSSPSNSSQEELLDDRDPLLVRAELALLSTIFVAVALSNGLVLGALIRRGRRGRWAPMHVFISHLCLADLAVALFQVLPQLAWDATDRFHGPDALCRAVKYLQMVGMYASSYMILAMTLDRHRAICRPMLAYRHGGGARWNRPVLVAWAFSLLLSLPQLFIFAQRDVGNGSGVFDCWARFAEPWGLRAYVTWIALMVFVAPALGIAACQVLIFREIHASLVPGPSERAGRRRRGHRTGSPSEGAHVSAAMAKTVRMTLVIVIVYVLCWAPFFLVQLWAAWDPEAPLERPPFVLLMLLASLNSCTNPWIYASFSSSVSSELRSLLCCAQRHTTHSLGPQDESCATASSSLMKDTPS
Experimental: as §1, §2, §3, §4, §5, §6, §7, §8, §9, §10, §29, §27, §28

[1] = tested on: human uterine smooth muscle cells (UtSMC); assay: Stimulation of primary human uterine smooth muscle cells (UtSMC); format: cell-based
Experimental: (§30) Finally, we evaluated whether tracer (11) is applicable in primary cells endogenously expressing OTR.
(§31) Primary UtSMC and hippocampal neuronal cultures.
(§32) Muscle Cell Basal Medium 2 (PromoCell), including supplements (PromoCell) and P/S (Gibco) at 37°C and 5%
(§33) CO2. Cells were trypsinized with 0.1% Trypsin/EDTA (Gibco) and plated on glass -bottom 96-well plates (CellVis)
(§34) at a density of 10,000 cells/well in full growth medium. The next day, cells were stimulated with tracer ( 11), OTA ,
(§35) dissociated with flame -polishe d Pasteur pipettes in Hank’s balanced salt solution (HBSS, Gibco). Tissue pieces
(§36) were subsequently enzymatically dissociated with 0.1% Trypsin/EDTA (Gibco) in Neurobasal A (NBA, Gibco)
(§37) containing 1,000U/mL DNase (Sigma) for 5 min at 37°C. Cells were triturated with flamed Pasteur pipettes,
(§38) filtered through a 40 µm nylon mesh ( Thermo Fisher Scientific ), centrifuged at 200 g for 5 min, and washed up to
(§39) three times in NBA containing P/S (Gibco), GlutaMax (Gibco) , and B27 supplement (Gibco). Cells were plated at
(§40) 20,000 cells/well on PDL -coated (Sigma) glass -bottom black 96 -well microscopy plates (Cellvis) and grown at
(§41) 37°C with 5% CO 2. Half of the medium was replaced every 3 -4 days. After 13 -14 days in vitro , neuronal cultures
(§42) were exposed to 100 nM tracer ( 11) for one hour, with or without 30-min pretreatment with 10 µM of the peptide
antagonist OTA. In parallel, neurons were exposed to 100 nM of the scrambled tracer SCR for 1 h. After
stimulations, cells were washed with ice-cold PBS and fixed with 4% paraformaldehyde for 30 min on ice. Next,
washed again in PBS, and directly imaged on a Zeiss LSM880 confocal microscope.

[2] = tested on: mouse embryonic hippocampal neurons; assay: Tracer uptake in primary mouse hippocampal neurons; format: cell-based
Experimental: as §30, §31, §32, §33, §34, §35, §36, §37, §38, §39, §40, §41, §42
antagonist OTA. […]

[3] = tested on: rat embryonic hippocampal neurons; assay: Tracer uptake in primary rat hippocampal neurons; format: cell-based; conditions: 10 µM, 30 min
Experimental: as §30, §31, §32, §33, §34, §35, §36, §37, §38, §39, §40, §41, §42
antagonist OTA. […]

hOTR-GFP in HEK293 cells [4] = molecular target: T9, hOTR-GFP in HEK293 cells (Homo sapiens, UniProt P30559); assay: hOTR-GFP internalization and tracer uptake, confocal microscopy after fixation/ICC; format: cell-based; set-up: expressed in transfected cells
T9 sequence (P30559 1-389): T1 sequence (P30559 1-389)
Text: To validate the application scope of our tracers for biological systems and post‐hoc imaging, we used HEK293 cells stably overexpressing human OTR or V1aR, tagged with a C‐terminal fused green fluorescent protein to visualize receptor trafficking (hOTR‐GFP or hV1aR‐GFP, respectively).
subsequently washed with PBS and processed for immunocytochemistry.
Immunocytochemistry and imaging. Unspecific protein binding was quenched with 5% normal donkey serum
(Jackson ImmunoResearch), 2% bovine serum albumin (Sigma-Aldrich, Merck), and 0.2% Triton X-100 (Sigma-
Aldrich, Merck) in PBS. Next, cells were exposed to primary antibody cocktails containing FITC-conjugated goat-
anti-GF (1:2000, Sigma-Aldrich, Merck) and mouse pCREB (1:300, Sigma-Aldrich, Merck) in PBS with 2%
normal donkey serum, 0.1% BSA, and 0.2% Triton X-100 overnight at 4°C. After three PBS washing steps, wells
were incubated with secondary antibody cocktails (1:400, Jackson Immuno Research) containing suitable
were mounted with glycerol gelatin (Sigma-Aldrich, Merck) and imaged on a Zeiss LSM 780/880 confocal
microscope (Zeiss). Images were analyzed and equally contrasted for visualization with ZEN Pro (Zeiss) and

hOTR-GFP in HEK293 cells [5] = molecular target: T9, hOTR-GFP in HEK293 cells; assay: Live-cell imaging (ZEISS Lattice SIM) of hOTR-GFP internalization; conditions: 10 and 100 nM tracer
Experimental: We first exposed hOTR‐GFP cells to 10 and 100 nM of tracer (11) during acquisition with a ZEISS Lattice SIM microscope (Movies S1 and S2). […] To further disentangle the dynamics of our tracer‐mediated OTR engagement and trafficking, we evaluated its applicability in single‐particle tracking (SPT) in living cells. We cultured HEK293 (parent cells) and HEK293 cells stably expressing hOTR‐GFP (HEK293‐hOTR‐GFP) and performed total internal reflection microscopy (TIRFM) SPT universal point accumulation imaging in nanoscale topography (uPAINT) following the addition of 1 nM of tracer (10). […] This concentration was selected to facilitate the detection and tracking of single molecules of the fluorescent agonist tracer following binding to hOTR at the plasma membrane by uPAINT. […] We first assessed the number of tracks (indicative of the number of single molecules detected/tracked). […] We quantified the mean squared displacement of each trajectory to calculate its apparent diffusion coefficient. The diffusion coefficient of each trajectory of the tracer bound to hOTR was plotted as a frequency distribution (Figure 7b2 ).
Live cell imaging. For 3D live cell imaging, attached and serum -starved HEK293-hOTR-GFP cells in 96-well
glass bottom plates were imaged on a ZEISS Lattice SIM Microscope using a 40x oil objective and SIM 2 post- […]

Question: CC[C@H](C)[C@@H]1NC(=O)[C@@H](Cc2ccc(O)cc2)NC(=O)CC2(CCCCC2)SSC[C@@H](C(=O)N2CCC[C@H]2C(=O)N[C@@H](CCCN)C(=O)O)NC(=O)[C@H](CC(N)=O)NC(=O)[C@H]([C@@H](C)O)NC1=O [OTR antagonist (OTA), reference compound] ([dY]ITNCP[Orn]-OH; linker N-5 via X2) was tested. Which “Selectivity ratio hV1aR/hOTR” value (hOTR; Ki ratio, VPR affinity divided by OTR affinity) did it give?
Answer: 1.02

Question: What about the Ki (hOTR) of the same compound?
Answer: 44.9 ± 8.8 nM

Question: What about the Ki (hV1aR) of the same compound?
Answer: 45.8 ± 11.9 nM

Question: What about the Ki (hV1bR) of the same compound?
Answer: > 10000 nM

Question: And the Ki (hV2R)?
Answer: > 10000 nM

Question: And the “Selectivity ratio mV1aR/mOTR” value (mOTR; Ki ratio)?
Answer: >1500

Question: What about the “Selectivity ratio mV1bR/mOTR” value (mOTR; Ki ratio) of the same compound?
Answer: >1500

Question: And the “Selectivity ratio mV2R/mOTR” value (mOTR; Ki ratio)?
Answer: 510

Question: What about the Ki (mOTR; murine receptor, transient expression, mean ± SD) of the same compound?
Answer: 5.9 ± 1.7 nM

Question: What about the Ki (mV1aR) of the same compound?
Answer: > 10000 nM

Question: What about the Ki (mV1bR) of the same compound?
Answer: > 10000 nM

Question: And the Ki (mV2R)?
Answer: 3010 ± 346 nM

Question: And the “Effect of OTA pretreatment on tracer (11) in UtSMC” value [1]?
Answer: prevented tracer uptake as well as cellular contractions and membrane blebbing

Question: And the “Effect of OTA pretreatment on tracer (11) uptake in mouse hippocampal neurons” value ([2]; 10 µM, 30 min)?
Answer: completely inhibited the uptake

Question: What about the “Effect of OTA pretreatment on tracer (11) uptake in rat hippocampal neurons” value [3] of the same compound?
Answer: prevented compound (11) internalization

Question: What about the “Effect of antagonist pretreatment on hOTR-GFP internalization and accumulation of tracers (3) and (7)” value (hOTR-GFP in HEK293 cells [4]; 10 µM, 30 min before 1 h stimulation with 100 nM tracer) of the same compound?
Answer: prevented hOTR‐GFP internalization and cytoplasmic accumulation

Question: What about the “Effect of antagonist pretreatment on tracer (11) uptake” value (hOTR-GFP in HEK293 cells [4]; 10 µM, 30 min pretreatment) of the same compound?
Answer: completely prevented tracer (11) uptake

Question: What about the “Effect of antagonist pretreatment on tracer (13) uptake and GFP internalization” value (hOTR-GFP in HEK293 cells [4]; 10 µM, 30 min pretreatment, tracer (13) up to 100 nM) of the same compound?
Answer: completely prevented

Question: CC[C@H](C)[C@@H]1NC(=O)[C@H](Cc2ccc(O)cc2)NC(=O)CCSSC[C@@H](C(=O)N2CCC[C@H]2C(=O)N[C@@H](CCCNC(=O)[C@@H](CC(=O)O)NC(=O)CCOCCOCCOCCOCCOCCNC(=O)[C@H](N)CCCCNC(=O)CCCCC[N+]2=C(C=CC=C3N(CC)c4ccc(S(=O)(=O)[O-])cc4C3(C)C)C(C)(C)c3cc(S(=O)(=O)O)ccc32)C(=O)NCC(N)=O)NC(=O)[C@H](CC(N)=O)NC(=O)[C@H](CCC(N)=O)NC1=O [Compound 11] ([Mpa]YIQNCP[Orn]([dD-PEG5-d(εLys)-X1])G-NH2; disulfide 1-6) was tested. Which Ki (hOTR) did it give?
Answer: 2 nM

Question: What about the Ki (mV2R) of the same compound?
Answer: > 10000 nM

Question: What about the “Contraction of UtSMC” value ([1]; 100 nM, live-cell imaging) of the same compound?
Answer: induced rapid contractions within minutes

Question: And the “Tracer uptake in UtSMC” value ([1]; 60 min treatment)?
Answer: accumulation was observed in vesicle‐like structures within 60 min

Question: And the “Tracer uptake in mouse hippocampal neurons” value ([2]; 100 nM, 1 h, E16.5 neurons cultured 14 days)?
Answer: robust uptake in subpopulations of neurons

Question: And the “Cy3s signal accumulation in hOTR-expressing cells” value (hOTR-GFP in HEK293 cells [4]; post ICC, normalized to control)?
Answer: significant concentration‐dependent accumulation

Question: What about the “Time to peak internalization” value (hOTR-GFP in HEK293 cells [5]) of the same compound?
Answer: 5 to 10 min
